Measured values reported in patent publication US20240315989A1 (priority 2021, published 2024).
Like-named read-outs stand apart in the source and are kept apart here.

How the values were obtained:
SARS-CoV-2 infection = experiment: Retrospective cohort (BJC Healthcare): antidepressant exposure and ED or hospital encounter within 30 days; assay type: in vivo, human; details: share of exposed outpatients with an encounter after a positive SARS-CoV-2 test
COVID-19 [1] = details: follow-up questionnaire
[2] = system: COVID-19 (SARS-CoV-2 infection)
COVID-19 [3] = system: COVID-19
COVID-19 [4] = details: cited from earlier work
[5] = system: α1-, α2-, β-adrenergic, muscarinic, dopamine D2, histamine H1, GABA-benzodiazepine, opiate, 5-HT1, or 5-HT2 receptors; details: cited from earlier work
[6] = cited from earlier work
[7] = cited from earlier work; remark: listed apart in the source
[8] = system: HEK293T cell lines expressing ACE2 and TMPRSS2; details: FIG. 27; cited from earlier work
[9] = depending on formulation; cited from earlier work
[10] = Intent to Treat Analysis, all randomized
[11] = per protocol, fluvoxamine group
[12] = Bayesian, moderately optimistic prior

Structure (SMILES): COCCCC/C(=N\OCCN)c1ccc(C(F)(F)F)cc1.O=C(O)/C=C\C(=O)O [fluvoxamine, 5-methoxy-4′-(trifluoromethyl)valerophenone-(E)-O-(2-aminoethyl)oxime maleate (1:1)]
- ED or hospital encounter within 30 days, % (SARS-CoV-2 infection): 21.1%
- Maximum dose tolerated over 15 days 200 mg/day (100 twice daily), % (STOP COVID trial dosing): (45%)
- Maximum dose tolerated over 15 days 200 mg/day (100 twice daily), Number (STOP COVID trial dosing): 36
- Maximum dose tolerated over 15 days 300 mg/day (100 three times daily), % (STOP COVID trial dosing): (50%)
- Maximum dose tolerated over 15 days 300 mg/day (100 three times daily), Number (STOP COVID trial dosing): 40
- Not able to reach 200 mg/day, % (STOP COVID trial dosing): (5%)
- Not able to reach 200 mg/day, Number (STOP COVID trial dosing): 4
- Acute on chronic respiratory failure, % (StopCovid, N = 80): (0%)
- Acute on chronic respiratory failure, number (StopCovid, N = 80): 0
- Bacterial infection, % (StopCovid, N = 80): (1.3%)
- Bacterial infection, number (StopCovid, N = 80): 1
- Chest pain or tightness, % (StopCovid, N = 80): (0%)
- Chest pain or tightness, number (StopCovid, N = 80): 0
- Fever, % (StopCovid, N = 80): (0%)
- Fever, number (StopCovid, N = 80): 0
- Flank pain, % (StopCovid, N = 80): (0%)
- Flank pain, number (StopCovid, N = 80): 0
- Gastroenteritis, nausea, or vomiting, % (StopCovid, N = 80): (1.3%)
- Gastroenteritis, nausea, or vomiting, number (StopCovid, N = 80): 1
- Headache or head pain, % (StopCovid, N = 80): (2.5%)
- Headache or head pain, number (StopCovid, N = 80): 2
- Number of patients with any serious adverse event (StopCovid, N = 80): 1
- Number of patients with any serious adverse event, % (StopCovid, N = 80): (1.3%)
- Number with any adverse event (StopCovid, N = 80): 12
- Number with any adverse event, % (StopCovid, N = 80): (15%)
- Pneumonia, % (StopCovid, N = 80): (3.8%)
- Pneumonia, number (StopCovid, N = 80): 3
- Shortness of breath, % (StopCovid, N = 80): (2.5%)
- Shortness of breath, number (StopCovid, N = 80): 2
- Teeth chattering, % (StopCovid, N = 80): (1.3%)
- Teeth chattering, number (StopCovid, N = 80): 1
- Vasovagal syncope, % (StopCovid, N = 80): (1.3%)
- Vasovagal syncope, number (StopCovid, N = 80): 1
- hypercapnia, % (StopCovid, N = 80): (0%)
- hypercapnia, number (StopCovid, N = 80): 0
- muscle aches, % (StopCovid, N = 80): (1.3%)
- muscle aches, number (StopCovid, N = 80): 1
- Acute respiratory failure, No. of adverse events (%) (n = 80, 15 days): 0 No. (%)
- Bacterial infection, No. of adverse events (%) (n = 80, 15 days): 1 (1.3) No. (%)
- Chest pain or tightness, No. of adverse events (%) (n = 80, 15 days): 0 No. (%)
- Fever, No. of adverse events (%) (n = 80, 15 days): 0 No. (%)
- Flank pain, No. of adverse events (%) (n = 80, 15 days): 0 No. (%)
- Gastroenteritis, nausea, or vomiting, No. of adverse events (%) (n = 80, 15 days): 1 (1.3) No. (%)
- Headache or head pain, No. of adverse events (%) (n = 80, 15 days): 2 (2.5) No. (%)
- Hypercapnia, No. of adverse events (%) (n = 80, 15 days): 0 No. (%)
- Muscle aches, No. of adverse events (%) (n = 80, 15 days): 1 (1.3) No. (%)
- Other adverse events, by No. of patients (%) (n = 80, 15 days): 11 (13.8) No. (%)
- Pneumonia, No. of adverse events (%) (n = 80, 15 days): 3 (3.8) No. (%)
- Serious adverse events, by No. of patients (%) (n = 80, 15 days): 1 (1.3) No. (%)
- Shortness of breath, No. of adverse events (%) (n = 80, 15 days): 2 (2.5) No. (%)
- Teeth chattering, No. of adverse events (%) (n = 80, 15 days): 1 (1.3) No. (%)
- Vasovagal syncope, No. of adverse events (%) (n = 80, 15 days): 1 (1.3) No. (%)
- Ache in chest wall (ribs/sternum) present during the course of COVID-19, % (COVID-19 [1]): (33%)
- Ache in chest wall (ribs/sternum) present within past 48 hours at follow-up, % (COVID-19 [1]): (11%)
- Chest pain that worsens when taking a deep breath, present during the course of COVID-19, % (COVID-19 [1]): (37%)
- Chest pain that worsens when taking a deep breath, present within past 48 hours at follow-up, % (COVID-19 [1]): (17%)
- Chest pressure present during the course of COVID-19, % (COVID-19 [1]): (54%)
- Chest pressure present within past 48 hours at time of follow-up, % (COVID-19 [1]): (17%)
- Chest tightness present during the course of COVID-19, % (COVID-19 [1]): (54%)
- Chest tightness present within past 48 hours at follow-up, % (COVID-19 [1]): (17%)
- Pain deep inside the chest present during the course of COVID-19, % (COVID-19 [1]): (31%)
- Pain deep inside the chest present within past 48 hours at follow-up, % (COVID-19 [1]): (9%)
- Sharp chest pains present during the course of COVID-19, % (COVID-19 [1]): (33%)
- Sharp chest pains present within past 48 hours at follow-up, % (COVID-19 [1]): (13%)
- Hospitalization or extended emergency room visit due to COVID-19, HR [2]: 0.77
- Patients with any interaction with a COVID-19 emergency setting, No. [2]: 180
- Period of hospitalization, estimated treatment effect [2]: 1.23
- Progression to severe COVID (FDA categorization), % of patients [2]: 10.1%
- Proportion of primary outcome events, % [2]: 3.6%
- Time on mechanical ventilator, estimated treatment effect [2]: 1.03
- Primary outcome events (retention in COVID-19 emergency setting >6 h or transfer to tertiary hospital), No. of patients ([2]; 100 mg): 79
- Proportion of primary outcome events, % ([2]; 24 h): 10.5%
- Probability of superiority (event rate lower than placebo) ([2]; ITT population): 99.8%
- Primary outcome events, % of patients ([2]; ITT, of 741, 28 days): 11%
- Primary outcome events, n/N [2, 10]: (79/741)
- Proportion of primary outcome events (retention in COVID-19 emergency setting >6 hours or transfer to tertiary hospital), % [2, 10]: 10.7%
- Primary outcome events (retention in a COVID-19 emergency setting or transfer to tertiary hospital due to COVID-19), % ([2]; Intention-to-treat analysis, N 741): (11%)
- Primary outcome events, n/N ([2]; Modified Intent to Treat Analysis, received ≥24 hours of study medicine): (78/740)
- Primary outcome events (retention in a COVID-19 emergency setting or transfer to tertiary hospital due to COVID-19), % ([2]; Modified intention-to-treat analysis, N 740): (11%)
- Primary outcome events, n/N ([2]; Per Protocol, received 80% of study medicine prior to any deterioration): (20/548)
- All-cause hospitalization, n/N ([2]; TOGETHER, fluvoxamine group): 76/741
- Death, intention to treat, % ([2]; TOGETHER, fluvoxamine group): (2%)
- Death, intention to treat, n/N ([2]; TOGETHER, fluvoxamine group): 17/741
- Hospitalized for COVID, n/N ([2]; TOGETHER, fluvoxamine group): 75/741
- Probability that event rate was lower than placebo ([2]; mITT population): 99.7%
- Time to death ([2]; median, fluvoxamine group): 17 days
- Death, per protocol, % [2, 11]: (<1%)
- Death, per protocol, n/N [2, 11]: 1/548
- Deaths, No. ([2]; per-protocol population): one
- Reduction in risk of death (mortality) ([2]; per-protocol, took at least 80% of pills): 91%
- Deaths, No. ([2]; primary intention-to-treat analysis): 17
- Number needed to treat ([2]; primary outcome): 20
- Hospitalization or extended emergency room visit due to COVID-19, n_Fluvoxamine ([2]; subgroup Age <=50): 23
- Hospitalization or extended emergency room visit due to COVID-19, HR ([2]; subgroup Age <=50, vs placebo): 0.57
- Hospitalization or extended emergency room visit due to COVID-19, HR ([2]; subgroup Age >50, vs placebo): 0.67
- Hospitalization or extended emergency room visit due to COVID-19, n_Fluvoxamine ([2]; subgroup BMI (Kg/m^2) >30): 44
- Hospitalization or extended emergency room visit due to COVID-19, HR ([2]; subgroup BMI (Kg/m^2) >30, vs placebo): 0.64
- Hospitalization or extended emergency room visit due to COVID-19, HR ([2]; subgroup Cardiovascular disease N, vs placebo): 0.67
- Hospitalization or extended emergency room visit due to COVID-19, n_Fluvoxamine ([2]; subgroup Cardiovascular disease Y): 0
- Hospitalization or extended emergency room visit due to COVID-19, n_Fluvoxamine ([2]; subgroup Chronic kidney disease N): 78
- Hospitalization or extended emergency room visit due to COVID-19, n_Fluvoxamine ([2]; subgroup Chronic kidney disease Y): 1
- Hospitalization or extended emergency room visit due to COVID-19, n_Fluvoxamine ([2]; subgroup Sex Female): 28
- Hospitalization or extended emergency room visit due to COVID-19, n_Fluvoxamine ([2]; subgroup Sex Male): 51
- Hospitalization or extended emergency room visit due to COVID-19, HR ([2]; subgroup Sex Male, vs placebo): 0.80
- Hospitalization or extended emergency room visit due to COVID-19, HR ([2]; subgroup Smoking status Current, vs placebo): 0.80
- Hospitalization or extended emergency room visit due to COVID-19, n_Fluvoxamine ([2]; subgroup Smoking status Former): 10
- Hospitalization or extended emergency room visit due to COVID-19, HR ([2]; subgroup Smoking status Former, vs placebo): 0.46
- Hospitalization or extended emergency room visit due to COVID-19, n_Fluvoxamine ([2]; subgroup Time from onset of symptoms 0-3 days): 30
- Time to death, estimated treatment effect ([2]; unadjusted hazard ratio, fluvoxamine vs placebo): 0.80
- Death, intention to treat, estimated treatment effect ([2]; unadjusted odds ratio, fluvoxamine vs placebo): 0.69
- Probability RR <1 (COVID-19 [3]; [12]): 97.2%
- Probability RR ≤0.9 (COVID-19 [3]; [12]): 89.9%
- Probability RR <1 (COVID-19 [3]; Bayesian, weakly neutral prior): 94.1%
- Probability RR ≤0.9 (COVID-19 [3]; Bayesian, weakly neutral prior): 81.6%
- Probability RR <1 (COVID-19 [3]; Frequentist analysis): 98.3%
- Probability RR ≤0.9 (COVID-19 [3]; Frequentist analysis): 91.1%
- Probability of at least a moderate effect (COVID-19 [3]; frequentist meta-analysis): 91.1%
- Probability that fluvoxamine prevents hospitalization (COVID-19 [3]; frequentist meta-analysis): 98.3%
- HR for death vs matched controls (COVID-19 [4]; 95% CI 0.36-0.94): 0.58
- Patients who died, % (COVID-19 [4]; ICU patients, 100 mg three times daily): 58.8%
- Reduced risk of death vs matched controls (COVID-19 [4]; in vivo): 42%
- Patients who died, No. (COVID-19 [4]; of 51 ICU patients, 100 mg three times daily): 30
- Affinity for α1-, α2-, β-adrenergic, muscarinic, dopamine D2, histamine H1, GABA-benzodiazepine, opiate, 5-HT1, or 5-HT2 receptors [5]: negligible affinity
- volume of distribution [V/F] ([6]; one-compartment model): 928 L
- Free fraction in plasma ([6]; unbound to plasma proteins): 20%
- Nausea, % of patients ([7]; 35,368 people, 66 studies): 15.7%
- Another serious adverse event (suicide attempt, depression, death, accidental injury) ([7]; in vivo): < 0.4%
- Serious adverse events requiring hospitalization ([7]; in vivo): 1.6%
- Serious adverse events, % of people ([7]; taking the medication for a psychiatric disorder): approximately 2.0%
- HEK293T-ACE2-TMPRSS2 cell IC50 [8]: 4.579 µg/mL
- half-life [9]: 9 to 28 h
